Data taken from patent publication US20230210819A1, “USE OF BENZISOSELAZOLE DERIVATIVE FOR ANTI-CORONAVIRUS AND CONTROL OF INTERSTITIAL LUNG DISEASE (ILD) RELATED TO CORONAVIRUS” (SHANGHAI YUANXI MEDICINE CORP., priority 2020, published 2023).

Experiments:
Assay type in all cases: in vivo, C57 mice
[1] = test system: bleomycin-induced mouse lung disease model; assay: Lung and spleen coefficients, 7-d modeling
Experimental: (§1) Animals of 7-d modeling were randomly divided into 7 groups according to the table below, 6 animals per control group and 12 animals per test group.
(§2) Drug administration began 24 h or 7 d after modeling. […] The day of the first administration was counted as D1, the next day as D2, and so forth. The normal groups and Model groups were given 200 µL of normal saline daily by gavage administration.
Method: after being euthanized, the animals were dissected, and the heart, liver, spleen, lung and kidney were weighed.
In this experiment, 105 C57 mice were randomly selected and subjected to organ drip administration of a single dose of bleomycin at 2.5 mg/kg for 24 h or 7 d for induction. After 7 days of induction, 3 model mice were randomly selected and dissected to determine whether the modeling was successful. After modeling, the survival of the mice was recorded. The living states of the mice were observed and their body weight was measured at a fixed time.
A normal control group comprised 6 mice.

[2] = test system: bleomycin-induced mouse lung disease model; assay: Blood gas analysis, 24-h modeling; conditions: for BEect / HCO3^- / PCO2: arterial blood after administration ended
Experimental: Animals of 24-h modeling were randomly divided into 5 groups according to the table below, 3 animals per control group and 5 animals per test group.
as §2
1. After being anaesthetized, a mouse was fixed to a board in a supine position.
2. After the skin was disinfected with alcohol, a midline cut of about 1.5 cm was made downward in the skin of the neck. The connective tissue between the sternohyoid muscle and the stemothyroid muscle was separated along the anterior border of the sternomastoid muscle with a tissue forceps. The pulsating common carotid artery could be seen on the deep right side of the trachea. A common carotid artery of about 1.5 cm in length was separated. The distal end was ligated with silk thread, and the proximal end was clipped with an artery clip and threaded with a silk thread for later use. The mouse board was placed under a dissecting microscope, and a V-shaped centripetal incision was gently made in a site near the distal end of the artery with a microscopy scissor. A PE microcatheter was inserted into the artery and fixed by making a knot with silk thread. The artery clip was removed, and 0.1-0.2 mL of blood was collected with a 1 mL syringe. The proximal end was clipped with an artery clip, and the syringe was removed. The blood was immediately analyzed on an AbboTTi-STAT blood gas microanalyzer.
In a blood gas analysis, the H^+ concentration in the blood and gases (mainly CO2 and O2) dissolved in the blood can be determined to directly reflect the function of pulmonary ventilation and the acid-base balance state. They are used to determine in the organism whether the acid-base balance is upset, whether anoxia occurred, the level of anoxia, and so forth.

[3] = test system: inflammatory cells in bronchoalveolar lavage fluid; assay: Inflammatory cell assay of bronchoalveolar lavage fluid, 7-d modeling
Experimental: as §1, §2
After the mouse was fixed, its trachea and chest cavity were exposed, and the trachea and the esophagus were bluntly separated with an ophthalmic curved forceps. Two sutures were made between the trachea and the esophagus. An intravenous trocar was inserted into the trachea and ligated at the site where it entered the trachea and at its distal end. A 1 mL syringe was connected to draw in 1 mL of pre-cooled PBS and infuse it into the lung tissue. Significant filling in the lung could be seen with the naked eye. The syringe was held for 10 s and withdrawal was performed. The infusion/withdrawal cycle was repeated 3 times. The withdrawn BALF was transferred to a clean EP tube and centrifuged at 4° C., and the supernatant was collected and preserved at -80° C. The cells were subjected to routine tests.
Upon the end of the administration, the leukocytes (lymphocytes, neutrophils and monocytes) in the bronchoalveolar lavage fluids of the mice in the 7-d modeling groups were classified and counted.

[4] = test system: bleomycin-induced mouse lung disease model; assay: Lung HE pathological analysis (Ashcroft score), 7-d modeling; conditions: for HE score (pulmonary fibrosis, Ashcroft): 18 fields of view
Experimental: as §1, §2
1. […] Specifically, a mold was prepared first, and then the tissue was laid flat at the bottom of the mold; after the section face was arranged facedown, the embedding box cover was put on the mold; molten wax was poured into the mold until it overflowed the mold, and then the mold was gently lifted up and laid flat in a freezing platform; after being rapidly cooled and frozen for about 10 min, the mold was took out. • 6) Sectioning method
2. HE staining • 1) A flat section was selected for HE staining. • 2) The section was dewaxed in xylene I for 20 min. • 3) The section was dewaxed in xylene II for 20 min. • 4) The section was soaked in absolute ethanol for 10 min. • 5) Stepwise rehydrating, in absolute ethanol for 5 min, in 90% ethanol for 5 min, in 80% ethanol for 5 min, and in […] for 5 min; and a water wash. • 6) Staining with hematoxylin for 3-5 min. A water wash. • 7) Differentiating with 1% HCl-[…] for 5-10 s. A water wash, and bluing. • 8) Staining with eosin for 30-60 s. A water wash. • 9) Washing with 80% ethanol for 3-5 s, with 95% ethanol for 3-5 s, and with absolute ethanol for 3-5 s. • 10) Coverslipping with neutral resin, observing under a microscope, and photographing.
HE sectioning: 3 sections were consecutively made; flat sections of complete tissue were selected for HE staining; each of the sections was photographed in 3 randomly selected fields of view at 200x magnification. The obtained images were scored.
The general standard Ashcroft scoring method for pulmonary fibrosis tissues was adopted in HE scoring. The HE pathological analysis is an outcome evaluation for irreversible pulmonary fibrosis that develops in interstitial lung disease models.
For 6 animals from each of the 7-d modeling groups, a total of 18 HE fields of view were scored.

[5] = 7-d modeling, BSH: BS 180 mg/kg gavage daily
[6] = 7-d modeling, BSL: BS 36 mg/kg gavage daily
[7] = 7-d modeling, BSM: BS 90 mg/kg gavage daily
[8] = Dex 1-1.5 mg/kg i.p. every two days
[9] = 7-d modeling, Dex 1-1.5 mg/kg i.p. every two days

O=c1c2ccccc2[se]n1CCCCn1[se]c2ccccc2c1=O [BS, 1,4-[bis(1,2-benzisoselenazol-3(2H)-one)]butane]
Effect on lung coefficient (in words) ([1]; BS 90 mg/kg or 180 mg/kg, effect better than that of Dex): significantly reduce increases in the lung coefficient | Effect on spleen coefficient (in words) ([1]; BS 180 mg/kg, effect better than that of Dex): significantly decrease the spleen coefficient | Lung coefficient ([1]; BSH: BS 180 mg/kg gavage daily): 0.88±0.05% | Spleen coefficient ([1]; BSH: BS 180 mg/kg gavage daily): 0.39±0.02% | Lung coefficient ([1]; BSL: BS 36 mg/kg gavage daily): 0.97±0.07% | Spleen coefficient ([1]; BSL: BS 36 mg/kg gavage daily): 0.40±0.07% | Lung coefficient ([1]; BSM: BS 90 mg/kg gavage daily): 0.90±0.09% | Spleen coefficient ([1]; BSM: BS 90 mg/kg gavage daily): 0.40±0.05% | BEect ([2]; BS 90 mg/kg gavage daily): -9.40 ± 1.14 mmol/L | HCO3^- ([2]; BS 90 mg/kg gavage daily): 30.00 ± 1.20 mmol/L | PCO2 ([2]; BS 90 mg/kg gavage daily): 30.84±1.21 mmHg | Effect on blood gas analysis (in words) ([2]; BS 90 mg/kg, better than Dex (1-1.5 mg/kg) in general): significant improvements to the function of pulmonary ventilation and the acid-base balance states | Effect on pulmonary inflammation (in words) ([3]; BS 180 mg/kg, better than Dex (1-1.5 mg/kg)): significantly ameliorate pulmonary inflammation | Absolute leukocyte count in bronchoalveolar lavage fluid ([3]; BSH: BS 180 mg/kg gavage daily): 0.43±0.04 10^9/L | Absolute lymphocyte count in bronchoalveolar lavage fluid ([3]; BSH: BS 180 mg/kg gavage daily): 0.34±0.03 10^9/L | Absolute monocyte count in bronchoalveolar lavage fluid ([3]; BSH: BS 180 mg/kg gavage daily): 0.02±0.00 10^9/L | Absolute neutrophil count in bronchoalveolar lavage fluid ([3]; BSH: BS 180 mg/kg gavage daily): 0.02±0.01 10^9/L | Percent reduction in leukocytes in bronchoalveolar lavage fluid with respect to the Model group ([3]; BSH: BS 180 mg/kg gavage daily): 58.39% | Percent reduction in lymphocytes in bronchoalveolar lavage fluid with respect to the Model group ([3]; BSH: BS 180 mg/kg gavage daily): 60.73% | Percent reduction in monocytes in bronchoalveolar lavage fluid with respect to the Model group ([3]; BSH: BS 180 mg/kg gavage daily): 57.14% | Percent reduction in neutrophils in bronchoalveolar lavage fluid with respect to the Model group ([3]; BSH: BS 180 mg/kg gavage daily): 74.07% | Absolute leukocyte count in bronchoalveolar lavage fluid ([3]; BSL: BS 36 mg/kg gavage daily): 0.87±0.04 10^9/L | Absolute lymphocyte count in bronchoalveolar lavage fluid ([3]; BSL: BS 36 mg/kg gavage daily): 0.70±0.03 10^9/L | Absolute monocyte count in bronchoalveolar lavage fluid ([3]; BSL: BS 36 mg/kg gavage daily): 0.04±0.01 10^9/L | Absolute neutrophil count in bronchoalveolar lavage fluid ([3]; BSL: BS 36 mg/kg gavage daily): 0.08±0.01 10^9/L | Percent reduction in leukocytes in bronchoalveolar lavage fluid with respect to the Model group ([3]; BSL: BS 36 mg/kg gavage daily): 16.29% | Percent reduction in lymphocytes in bronchoalveolar lavage fluid with respect to the Model group ([3]; BSL: BS 36 mg/kg gavage daily): 19.54% | Percent reduction in monocytes in bronchoalveolar lavage fluid with respect to the Model group ([3]; BSL: BS 36 mg/kg gavage daily): 25.00% | Percent reduction in neutrophils in bronchoalveolar lavage fluid with respect to the Model group ([3]; BSL: BS 36 mg/kg gavage daily): 7.41% | Absolute leukocyte count in bronchoalveolar lavage fluid ([3]; BSM: BS 90 mg/kg gavage daily): 0.69±0.06 10^9/L | Absolute lymphocyte count in bronchoalveolar lavage fluid ([3]; BSM: BS 90 mg/kg gavage daily): 0.56±0.05 10^9/L | Absolute monocyte count in bronchoalveolar lavage fluid ([3]; BSM: BS 90 mg/kg gavage daily): 00.3±0.01 10^9/L | Absolute neutrophil count in bronchoalveolar lavage fluid ([3]; BSM: BS 90 mg/kg gavage daily): 0.08±0.01 10^9/L | Percent reduction in leukocytes in bronchoalveolar lavage fluid with respect to the Model group ([3]; BSM: BS 90 mg/kg gavage daily): 32.90% | Percent reduction in lymphocytes in bronchoalveolar lavage fluid with respect to the Model group ([3]; BSM: BS 90 mg/kg gavage daily): 35.63% | Percent reduction in monocytes in bronchoalveolar lavage fluid with respect to the Model group ([3]; BSM: BS 90 mg/kg gavage daily): 42.86% | Percent reduction in neutrophils in bronchoalveolar lavage fluid with respect to the Model group ([3]; BSM: BS 90 mg/kg gavage daily): 16.67% | Effect on lung tissue structure, HE (in words) ([4]; 7-d model, formation stage, BSL (36 mg/kg), BSM (90 mg/kg) and BSH (180 mg/kg)): significantly reduce structural changes in lung tissues | Effect against ECM deposition (in words) ([4]; 7-d model, BSH, 180 mg/kg): significant synergetic effect against ECM deposition | Clear lung tissue damage or pathological tissue change, in words ([4]; 7-d modeling, BSH: BS 180 mg/kg): did not show clear lung tissue damage or pathological tissue change | HE score and benefit rate, ≥4 points (fields/total); pathological tissue change [4, 5]: 0/18 | HE score and benefit rate, ≥4 points (percent of fields); probability of pathological tissue change [4, 5]: 0% | HE score and benefit rate, ≥5 points (fields/total); clear lung tissue damage [4, 5]: 0/18 | HE score and benefit rate, ≥5 points (percent of fields); probability of clear lung tissue damage [4, 5]: 0% | HE score and benefit rate, ≥6 points (fields/total) [4, 5]: 0/18 | HE score and benefit rate, ≥6 points (percent of fields) [4, 5]: 0% | Lung HE histology description [4, 5]: substantially complete lung tissue structures | HE score (pulmonary fibrosis, Ashcroft) [4, 5]: 1.48 ± 0.78 | HE score and benefit rate, ≥4 points (fields/total); pathological tissue change [4, 6]: 15/18 | HE score and benefit rate, ≥4 points (percent of fields); probability of pathological tissue change [4, 6]: 83.3% | HE score and benefit rate, ≥5 points (fields/total); clear lung tissue damage [4, 6]: 6/18 | HE score and benefit rate, ≥5 points (percent of fields); probability of clear lung tissue damage [4, 6]: 33.3% | HE score and benefit rate, ≥6 points (fields/total) [4, 6]: 1/18 | HE score and benefit rate, ≥6 points (percent of fields) [4, 6]: 5.6% | Lung HE histology description [4, 6]: relatively better lung structures than the Model group | HE score (pulmonary fibrosis, Ashcroft) [4, 6]: 4.28 ± 0.83 | HE score and benefit rate, ≥4 points (fields/total); pathological tissue change [4, 7]: 5/18 | HE score and benefit rate, ≥4 points (percent of fields); probability of pathological tissue change [4, 7]: 27.8% | HE score and benefit rate, ≥5 points (fields/total); clear lung tissue damage [4, 7]: 1/18 | HE score and benefit rate, ≥5 points (percent of fields); probability of clear lung tissue damage [4, 7]: 5.6% | HE score and benefit rate, ≥6 points (fields/total) [4, 7]: 0/18 | HE score and benefit rate, ≥6 points (percent of fields) [4, 7]: 0% | Lung HE histology description [4, 7]: much better lung structures than the Model group | HE score (pulmonary fibrosis, Ashcroft) [4, 7]: 3.00 ± 0.84

C[C@@H]1C[C@H]2[C@@H]3CCC4=CC(=O)C=C[C@]4(C)[C@@]3(F)[C@@H](O)C[C@]2(C)[C@@]1(O)C(=O)CO [Dex, dexamethasone, reference compound]
Lung coefficient [1, 8]: 0.96±0.08% | Spleen coefficient [1, 8]: 0.43±0.04% | BEect [2, 8]: -9.20 ± 1.30 mmol/L | HCO3^- [2, 8]: 28.28 ± 1.56 mmol/L | PCO2 [2, 8]: 32.52±2.73 mmHg | Absolute leukocyte count in bronchoalveolar lavage fluid [3, 8]: 0.57±0.02 10^9/L | Absolute lymphocyte count in bronchoalveolar lavage fluid [3, 8]: 0.46±0.03 10^9/L | Absolute monocyte count in bronchoalveolar lavage fluid [3, 8]: 0.03±0.01 10^9/L | Absolute neutrophil count in bronchoalveolar lavage fluid [3, 8]: 0.0±0.01 10^9/L | Percent reduction in leukocytes in bronchoalveolar lavage fluid with respect to the Model group [3, 8]: 45.32% | Percent reduction in lymphocytes in bronchoalveolar lavage fluid with respect to the Model group [3, 8]: 47.51% | Percent reduction in monocytes in bronchoalveolar lavage fluid with respect to the Model group [3, 8]: 46.43% | Percent reduction in neutrophils in bronchoalveolar lavage fluid with respect to the Model group [3, 8]: 68.52% | HE score and benefit rate, ≥4 points (fields/total); pathological tissue change [4, 9]: 7/18 | HE score and benefit rate, ≥4 points (percent of fields); probability of pathological tissue change [4, 9]: 38.9% | HE score and benefit rate, ≥6 points (fields/total) [4, 9]: 0/18 | HE score and benefit rate, ≥6 points (percent of fields) [4, 9]: 0% | HE score (pulmonary fibrosis, Ashcroft) [4, 9]: 3.28 ± 0.83
